Assay results reported in patent EP4722215A1, “AMORPHOUS SUBSTANCE AND CRYSTAL OF DIOXOPIPERIDINE COMPOUND OR PHARMACEUTICALLY ACCEPTABLE SALT THEREOF, PREPARATION METHOD, AND USE” (Jiangsu Hengrui Pharmaceuticals Co., Ltd., priority 2023, dated 2024).
Structures can show the parent of a compound that is named as a salt.

Tests used:
[1] = Pharmacokinetic evaluation in cynomolgus monkeys, intragastric administration, plasma LC/MS/MS; type: in vivo; conditions: both sexes, cynomolgus monkey, po, i.g., 2.0 mg/kg
Description: Cynomolgus monkeys were used as test animals.
Eight cynomolgus monkeys (half male and half female, provided by Shanghai Medicilon Inc.) were evenly divided into 2 groups.
Access to food and ad libitum access to water were given 3 h after administration.

in vivo = conditions: both, beagle, dog, plasma, po, 2 mg/kg
Description: Beagles were used as test animals. The plasma concentrations of a compound of the present disclosure in beagles at different time points after intragastric (i.g.) administration were determined using an LC/MS/MS method. The pharmacokinetic behavior of the compound of the present disclosure in beagles was studied, and its pharmacokinetic profile was evaluated.
Eight beagles (half male and half female, provided by Jiangsu Johnbio Biotechnology Co., Ltd.) were evenly divided into 2 groups. The animals were fasted overnight and then subjected to intragastric administration.
The administration dose was 2.0 mg/kg, and the administration volume was 5.0 mL/kg.
The samples were then placed into EDTA-K2 anticoagulation test tubes and centrifuged at 10,000 rpm for 2 min (4 °C), and plasma was separated within 1 h and stored at -80 °C before analysis. The procedures from the blood collection to the centrifugation were performed under ice-bath conditions. Access to food was given 3 h after administration.
After administration of different concentrations of the test compounds, the plasma concentrations of the test compounds in the beagles were determined as follows: 50 µL of each of the beagle plasma samples collected at various time points after administration was taken; 25 µL of camptothecin (1 µg/mL) and 450 µL of acetonitrile were added to precipitate protein, and the mixture was vortex-mixed and then centrifuged at 3700 rpm for 10 min; 0.5 µL of the supernatant was taken for LC/MS/MS analysis.

[2] = Long-term/accelerated stability study (sealed in aluminum foil bags); type: physicochemical; conditions: for Crystal form: up to 6 months
Description: The results are shown below. Table 16
The results are shown below. Table 20

[3] = Influencing factor stability study (open containers, high temperature / high humidity, 30 days); type: physicochemical
Description: Influencing factor stability study: Samples of the free-state form were taken, spread in open containers, and left to stand under high-temperature (40 °C and 60 °C) and high-humidity (RH 75% and RH 92.5%) conditions for 30 days to study its stability.
Influencing factor stability study of salt forms: Samples of the salt forms were taken, spread in open containers, and left to stand under high-temperature (40 °C and 60 °C) and high-humidity (RH 75%) conditions for 30 days to study their stability.

[4] = Dynamic vapor sorption (DVS) hygroscopicity; type: physicochemical
androgen receptor (AR) = target: T1, androgen receptor (AR) (Homo sapiens, UniProt P10275, T878A); experiment: Degradation activity on androgen receptor in LNCaP cells (AR ELISA); type: cell-based; conditions: 0.1 nM R1881, 24 h
T1 construct: host or cells: LNCaP
Description: After five washes, 100 µL of detection antibody working solution was added. […] After five washes, 100 µL of enzyme conjugate working solution was added. […] After five washes, 100 µL of substrate solution was added.

T1 sequence (P10275 whole entry T878A): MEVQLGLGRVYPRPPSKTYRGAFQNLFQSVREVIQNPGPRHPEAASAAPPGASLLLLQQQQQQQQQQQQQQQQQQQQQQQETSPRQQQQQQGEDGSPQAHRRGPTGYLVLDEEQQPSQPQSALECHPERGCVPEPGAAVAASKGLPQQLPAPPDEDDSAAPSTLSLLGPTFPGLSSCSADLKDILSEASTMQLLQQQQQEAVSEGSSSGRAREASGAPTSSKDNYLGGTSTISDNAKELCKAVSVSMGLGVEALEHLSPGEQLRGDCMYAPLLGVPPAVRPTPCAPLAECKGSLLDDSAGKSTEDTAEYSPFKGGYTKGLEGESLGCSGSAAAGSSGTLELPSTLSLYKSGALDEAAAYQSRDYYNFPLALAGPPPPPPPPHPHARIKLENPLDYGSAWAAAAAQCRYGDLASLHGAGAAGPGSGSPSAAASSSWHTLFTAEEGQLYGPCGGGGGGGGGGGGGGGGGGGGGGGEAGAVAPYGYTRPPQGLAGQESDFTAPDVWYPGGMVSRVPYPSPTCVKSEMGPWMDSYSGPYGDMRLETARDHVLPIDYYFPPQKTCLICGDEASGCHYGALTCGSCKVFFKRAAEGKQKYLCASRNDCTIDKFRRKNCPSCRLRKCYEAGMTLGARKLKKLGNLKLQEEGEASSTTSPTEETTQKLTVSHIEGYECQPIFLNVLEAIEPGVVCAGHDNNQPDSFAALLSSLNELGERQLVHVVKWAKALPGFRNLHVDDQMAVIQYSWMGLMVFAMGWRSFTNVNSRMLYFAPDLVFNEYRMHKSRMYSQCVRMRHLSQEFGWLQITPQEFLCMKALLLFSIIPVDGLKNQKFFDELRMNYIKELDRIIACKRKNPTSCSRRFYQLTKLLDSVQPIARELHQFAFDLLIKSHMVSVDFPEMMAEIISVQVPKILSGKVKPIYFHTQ
T1 sequence (Q96SW2 whole entry partner): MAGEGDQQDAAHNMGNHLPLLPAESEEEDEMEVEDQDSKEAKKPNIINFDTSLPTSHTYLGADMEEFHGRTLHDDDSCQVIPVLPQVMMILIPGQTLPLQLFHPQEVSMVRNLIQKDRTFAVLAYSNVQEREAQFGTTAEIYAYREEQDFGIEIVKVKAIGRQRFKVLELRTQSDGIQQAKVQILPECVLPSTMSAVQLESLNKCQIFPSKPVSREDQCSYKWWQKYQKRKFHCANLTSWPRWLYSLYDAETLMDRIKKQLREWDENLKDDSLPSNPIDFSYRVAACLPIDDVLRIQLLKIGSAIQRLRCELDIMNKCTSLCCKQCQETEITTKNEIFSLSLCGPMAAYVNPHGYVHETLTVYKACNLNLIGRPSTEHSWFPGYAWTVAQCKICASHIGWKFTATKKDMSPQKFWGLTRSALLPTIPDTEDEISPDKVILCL

Structure (SMILES) | Purity (%) ([2]; 25 °C/60% RH, 1 month) | Purity (%) ([2]; 25 °C/60% RH, 2 months) | Purity (%) ([2]; 25 °C/60% RH, 3 months) | Purity (%) ([2]; 25 °C/60% RH, 6 months) | Purity (%) ([2]; 25 °C/60% RH, Initial) | Crystal form ([2]; 25 °C/60% RH) | Purity (%) ([2]; 40 °C/75% RH, 1 month) | Purity (%) ([2]; 40 °C/75% RH, 2 months) | Purity (%) ([2]; 40 °C/75% RH, 3 months) | Purity (%) ([2]; 40 °C/75% RH, 6 months) | Purity (%) ([2]; 40 °C/75% RH, Initial) | Crystal form ([2]; 40 °C/75% RH) | Crystal form ([3]; 40 °C, 5 days) | Purity (%) ([3]; 40 °C, 5 days) | Crystal form ([3]; 40 °C, 10 days) | Purity (%) ([3]; 40 °C, 10 days) | Purity (%) ([3]; 40 °C, 30 days) | Crystal form ([3]; 60 °C, 5 days) | Purity (%) ([3]; 60 °C, 5 days) | Crystal form ([3]; 60 °C, 10 days) | other results
N#Cc1ccc(O[C@H]2CC[C@H](NC(=O)c3ccc(N4CCC(CN5CCN(c6cc7c(cc6F)C(=O)N(C6CCC(=O)NC6=O)C7=O)CC5)CC4)nn3)CC2)cc1Cl (stereo partly drawn) [ARV-110] |  |  |  |  |  |  |  |  |  |  |  |  |  |  |  |  |  |  |  |  | AUC(0-t) ([1]; read-out: Area under curve AUC0-t): 282 ng·h/mL; CL/F ([1]; read-out: Clearance rate CL/F): 44.6 mL/min/kg; Cmax ([1]; read-out: Plasma concentration Cmax): 15.9 ng/mL; AUC(0-t) (in vivo): 239 ng·h/mL; CL/F (in vivo): 70.9 mL/min/kg; Cmax (in vivo): 13 ng/mL
C[C@H]1CC2(CCN(c3ccc(C(=O)N4CCC(CN5CCN(c6cccc(N[C@H]7CCC(=O)NC7=O)c6)CC5)CC4)cc3F)CC2)CN1c1ccc(C#N)c(Cl)c1 [Amorphous form of maleate] | 98.9 | 98.9 | 98.9 | 98.7 | 98.9 | No change | 98.7 | 98.6 | 98.3 | 94.8 | 98.9 | No change |  |  |  |  |  |  |  |  | 
C[C@H]1CC2(CCN(c3ccc(C(=O)N4CCC(CN5CCN(c6cccc(N[C@H]7CCC(=O)NC7=O)c6)CC5)CC4)cc3F)CC2)CN1c1ccc(C#N)c(Cl)c1 [Amorphous form, 2-chloro-4-((S)-8-(4-(4-((4-(3-(((S)-2,6-dioxopiperidin-3-yl)amino)phenyl)piperazin-1-yl)methyl)piperidine-1-carbonyl)-2-fluorophenyl)-3-methyl-2,8-diazaspiro[4.5]decan-2-yl)benzonitrile] | 98.7 | 98.5 | 98.5 | 98.5 | 98.8 | No change | 98.7 | 98.4 | 98.4 | 98.3 | 98.8 | No change | No change | 98.7 | No change | 98.6 | 98.6 | No change | 98.6 | No change | Crystal form ([3]; 40 °C, 30 days): No change; Purity (%) ([3]; 60 °C, 10 days): 98.6%; Crystal form ([3]; 60 °C, 30 days): No change; Purity (%) ([3]; 60 °C, 30 days): 98.4%; Crystal form ([3]; 75% RH, 5 days): No change; Purity (%) ([3]; 75% RH, 5 days): 98.7%; Crystal form ([3]; 75% RH, 10 days): No change; Purity (%) ([3]; 75% RH, 10 days): 98.7%; Crystal form ([3]; 75% RH, 30 days): No change; Purity (%) ([3]; 75% RH, 30 days): 98.7%; Crystal form ([3]; 92.5% RH, 5 days): No change; Purity (%) ([3]; 92.5% RH, 5 days): 98.7%; Crystal form ([3]; 92.5% RH, 10 days): No change; Purity (%) ([3]; 92.5% RH, 10 days): 98.7%; Crystal form ([3]; 92.5% RH, 30 days): No change; Purity (%) ([3]; 92.5% RH, 30 days): 98.6%; Purity (%) ([3]; Initial, 0 days): 98.8%; chemical stability ([3]; high-temperature and high-humidity conditions): good chemical stability; physical and chemical stability ([2]; long-term accelerated conditions for 6 months): good physical and chemical stability
C[C@H]1CC2(CCN(c3ccc(C(=O)N4CCC(CN5CCN(c6cccc(N[C@H]7CCC(=O)NC7=O)c6)CC5)CC4)cc3F)CC2)CN1c1ccc(C#N)c(Cl)c1 [Crystal form A of mandelate] | 99.4 | 99.3 | 99.3 | 99.3 | 99.4 | No change | 99.4 | 99.3 | 99.3 | 98.9 | 99.4 | No change | No change | 98.6 | No change | 98.6 | 98.4 | No change | 98.4 | No change | Crystal form ([3]; 40 °C, 30 days): No change; Purity (%) ([3]; 60 °C, 10 days): 98.5%; Crystal form ([3]; 60 °C, 30 days): No change; Purity (%) ([3]; 60 °C, 30 days): 98.2%; Crystal form ([3]; 75% RH, 5 days): No change; Purity (%) ([3]; 75% RH, 5 days): 98.5%; Crystal form ([3]; 75% RH, 10 days): No change; Purity (%) ([3]; 75% RH, 10 days): 98.5%; Crystal form ([3]; 75% RH, 30 days): No change; Purity (%) ([3]; 75% RH, 30 days): 98.5%; Purity (%) ([3]; Initial, 0 days): 98.6%; hygroscopic weight gain ([4]; accelerated test conditions, 70% RH): about 1.047%; crystal form before and after DVS testing (XRPD) ([4]; before and after DVS testing): did not change; hygroscopic weight gain ([4]; extreme conditions, 90% RH): about 2.245%; hygroscopic weight gain ([4]; normal storage conditions, 25 °C and 60% RH): about 0.833%
C[C@H]1CC2(CCN(c3ccc(C(=O)N4CCC(CN5CCN(c6cccc(N[C@H]7CCC(=O)NC7=O)c6)CC5)CC4)cc3F)CC2)CN1c1ccc(C#N)c(Cl)c1 [Crystal form B of succinate] | 98.5 | 98.5 | 98.7 | 98.6 | 98.7 | No change | 98.5 | 98.5 | 98.5 | 98.3 | 98.7 | No change |  |  |  |  |  |  |  |  | 
C[C@H]1CC2(CCN(c3ccc(C(=O)N4CCC(CN5CCN(c6cccc(N[C@H]7CCC(=O)NC7=O)c6)CC5)CC4)cc3F)CC2)CN1c1ccc(C#N)c(Cl)c1 [Crystal form I of hydrochloride] |  |  |  |  |  |  |  |  |  |  |  |  | No change | 97.5 | No change | 96.9 | 95.3 | No change | 97.2 | No change | Purity (%) ([3]; 60 °C, 10 days): 96.5%; Purity (%) ([3]; 60 °C, 30 days): 94.5%; Crystal form ([3]; 75% RH, 5 days): No change; Purity (%) ([3]; 75% RH, 5 days): 97.5%; Crystal form ([3]; 75% RH, 10 days): No change; Purity (%) ([3]; 75% RH, 10 days): 97.1%; Purity (%) ([3]; 75% RH, 30 days): 96.5%; Purity (%) ([3]; Initial, 0 days): 98.1%
C[C@H]1CC2(CCN(c3ccc(C(=O)N4CCC(CN5CCN(c6cccc(NC7CCC(=O)NC7=O)c6)CC5)CC4)cc3F)CC2)CN1c1ccc(C#N)c(Cl)c1 (stereo partly drawn) [Example 1, 2-Chloro-4-((3S)-8-(4-(4-((4-(3-((2,6-dioxopiperidin-3-yl)amino)phenyl)piperazin-1-yl)methyl)piperidine-1-carbonyl)-2-fluorophenyl)-3-methyl-2,8-diazaspiro[4.5]decan-2-yl)benzonitrile] |  |  |  |  |  |  |  |  |  |  |  |  |  |  |  |  |  |  |  |  | DC50 (androgen receptor (AR)): 2.5 nM
C[C@H]1CC2(CCN(c3ccc(C(=O)N4CCC(CN5CCN(c6cccc(N[C@H]7CCC(=O)NC7=O)c6)CC5)CC4)cc3F)CC2)CN1c1ccc(C#N)c(Cl)c1 [Example 1-1, 2-Chloro-4-((S)-8-(4-(4-((4-(3-(((S)-2,6-dioxopiperidin-3-yl)amino)phenyl)piperazin-1-yl)methyl)piperidine-1-carbonyl)-2-fluorophenyl)-3-methyl-2,8-diazaspiro[4.5]decan-2-yl)benzonitrile] |  |  |  |  |  |  |  |  |  |  |  |  |  |  |  |  |  |  |  |  | DC50 (androgen receptor (AR)): 4.2 nM
C[C@H]1CC2(CCN(c3ccc(C(=O)N4CCC(CN5CCN(c6cccc(N[C@@H]7CCC(=O)NC7=O)c6)CC5)CC4)cc3F)CC2)CN1c1ccc(C#N)c(Cl)c1 [Example 1-2, 2-Chloro-4-((S)-8-(4-(4-((4-(3-(((R)-2,6-dioxopiperidin-3-yl)amino)phenyl)piperazin-1-yl)methyl)piperidine-1-carbonyl)-2-fluorophenyl)-3-methyl-2,8-diazaspiro[4.5]decan-2-yl)benzonitrile] |  |  |  |  |  |  |  |  |  |  |  |  |  |  |  |  |  |  |  |  | DC50 (androgen receptor (AR)): 14.2 nM
